# Reference: patent US7964724B2, “Chiral cis-imidazolines” (Hoffmann-La Roche Inc., priority 2004, dated 2011)
# Structures can show the parent of a compound that is named as a salt.
# Molecular target: interaction between p53 and MDM2 proteins (recombinant GST-tagged MDM2 / biotinylated p53-peptide) (Homo sapiens, UniProt Q00987)
# Assay: HTRF assay of inhibition of the p53-MDM2 interaction (In Vitro Activity Assay)
# Assay type: binding
# Procedure: The ability of the compounds to inhibit the interaction between p53 and MDM2 proteins was measured by an HTRF (homogeneous time-resolved fluorescence) assay in which recombinant GST-tagged MDM2 binds to a peptide that resembles the MDM2-interacting region of p53 (Lane et al.). Binding of GST-MDM2 protein and p53-peptide (biotinylated on its N-terminal end) is registered by the FRET (fluorescence resonance energy transfer) between Europium (Eu)-labeled anti-GST antibody and streptavidin-conjugated Allophycocyanin (APC). Test is performed in black flat-bottom 384-well plates (Costar) in a total volume of 40 uL containing: 90 nM biotinylate peptide, 160 ng/ml GST-MDM2, 20 nM streptavidin-APC (PerkinElmerWallac), 2 nM Eu-labeled anti-GST-antibody (PerkinElmerWallac), 0.2% bovine serum albumin (BSA), 1 mM dithiothreitol (DTT) and 20 mM […] (TBS) buffer as follows: Add 10 uL of GST-MDM2 (640 ng/ml working solution) in reaction buffer to each well. Add 10 uL dilution compounds (1:5 dilution in reaction buffer) to each well, mix by shaking, Add 20 uL biotinylated p53 peptide (180 nM working solution) in reaction buffer to each well and mix on shaker. Incubate at 37° C. for 1 h. Add 20 uL streptavidin-APC and Eu-anti-GST antibody mixture (6 nM Eu-anti-GST and 60 nM streptavidin-APC working solution) in TBS buffer with 0.2% BSA, shake at room temperature for 30 minutes and read using a TRF-capable plate reader at 665 and 615 nm (Victor 5, Perkin ElmerWallac). If not specified, the reagents were purchased from Sigma Chemical Co.
# Chain of interaction between p53 and MDM2 proteins (recombinant GST-tagged MDM2 / biotinylated p53-peptide) (Q00987 whole entry): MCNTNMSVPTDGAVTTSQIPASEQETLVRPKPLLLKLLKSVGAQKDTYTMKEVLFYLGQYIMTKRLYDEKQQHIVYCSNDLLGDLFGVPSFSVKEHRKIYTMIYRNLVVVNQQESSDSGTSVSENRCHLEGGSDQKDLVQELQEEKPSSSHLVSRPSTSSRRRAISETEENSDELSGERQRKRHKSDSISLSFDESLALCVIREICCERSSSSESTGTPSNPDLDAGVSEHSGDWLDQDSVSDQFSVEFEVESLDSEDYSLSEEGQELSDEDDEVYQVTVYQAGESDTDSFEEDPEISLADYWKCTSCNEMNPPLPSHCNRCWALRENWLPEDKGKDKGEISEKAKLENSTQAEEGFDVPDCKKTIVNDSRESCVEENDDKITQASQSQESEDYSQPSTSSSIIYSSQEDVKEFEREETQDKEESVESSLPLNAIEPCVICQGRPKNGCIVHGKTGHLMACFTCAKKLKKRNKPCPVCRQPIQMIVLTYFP
row,IC50 [nM],Structure (SMILES)
1,24,"CCOc1cc(C(C)(C)C)ccc1C1=N[C@@H](c2ccc(Cl)cc2)[C@@H](c2ccc(Cl)cc2)N1C(=O)N1CCC(N2CCCC2)CC1 [Example 74, [(4S,5R)-2-(4-tert-Butyl-2-ethoxy-phenyl)-4,5-bis-(4-chloro-phenyl)-4,5-dihydro-imidazol-1-yl]-(4-pyrrolidin-1-yl-piperidin-1-yl)-methanone hydrochloride]"
2,11,"C#Cc1ccc([C@@H]2[C@H](c3ccc(C#C)cc3)N=C(c3ccc(C(C)(C)C)cc3OCC)N2C(=O)N2CCN(CCS(C)(=O)=O)CC2)cc1 [Example 35, [(4S,5R)-2-(4-tert-Butyl-2-ethoxy-phenyl)-4,5-bis-(4-ethynyl-phenyl)-4,5-dihydro-imidazol-1-yl]-[4-(2-methanesulfonyl-ethyl)-piperazin-1-yl]-methanone hydrochloride]"
3,3100,"CCOc1cc(C(C)(C)C)ccc1C1=N[C@@H](c2ccc(F)cc2)[C@@H](c2ccc(F)cc2)N1C(=O)N1CCNC(=O)C1 [Example 27, 4-[(4S,5R)-2-(4-tert-Butyl-2-ethoxy-phenyl)-4,5-bis-(4-fluoro-phenyl)-4,5-dihydro-imidazole-1-carbonyl]-piperazin-2-one hydrochloride]"
4,60,"CCOc1cc(C(C)(C)C)ccc1C1=N[C@@H](c2ccc(F)cc2)[C@@H](c2ccc(F)cc2)N1C(=O)N1CCN(CCS(C)(=O)=O)CC1 [Example 26, [(4S,5R)-2-(4-tert-Butyl-2-ethoxy-phenyl)-4,5-bis-(4-fluoro-phenyl)-4,5-dihydro-imidazol-1-yl]-[4-(2-methanesulfonyl-ethyl)-piperazin-1-yl]-methanone hydrochloride]"
